Source: the supplement of paper PMC8149375

Columns and labels:
Conditions in all cases: treatment: drug + dasatinib (fixed dose, not stated); 5 days
CAKI-1 [1] = assay: GI50 of drug in presence of dasatinib; higher = less potent
Protocol: (§1)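 Primary HTS combination arm: 8 RCC cell lines treated with 8 doses (up to 10 uM) of each library drug plus a fixed dose of dasatinib (dose not stated) for 5 days; viability read by CellTiter-Glo and normalised to DMSO. GI50 was fitted with XLfit, AUC is the area under the dose-response curve, and minimum viability is the lowest fraction of DMSO viability across doses.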

786-O [2] = assay: as above
Protocol: as §1

A498 [3] = assay: as above
Protocol: as §1

TK-10 [4] = assay: as above
Protocol: as §1

SN12C [5] = assay: as above
Protocol: as §1

769-P [6] = assay: as above
Protocol: as §1

ACHN [7] = assay: as above
Protocol: as §1

UO-31 [8] = assay: as above
Protocol: as §1

CAKI-1 [9] = assay: AUC of dose-response viability curve, drug + dasatinib, normalised to DMSO (arbitrary (AUC of normalised viability)); higher = less growth inhibition
Protocol: as §1

786-O [10] = assay: as above
Protocol: as §1

A498 [11] = assay: as above
Protocol: as §1

TK-10 [12] = assay: as above
Protocol: as §1

SN12C [13] = assay: as above
Protocol: as §1

769-P [14] = assay: as above
Protocol: as §1

ACHN [15] = assay: as above
Protocol: as §1

UO-31 [16] = assay: as above
Protocol: as §1

CAKI-1 [17] = assay: minimum viability across doses, drug + dasatinib, relative to DMSO (fraction); higher = less growth inhibition
Protocol: as §1

786-O [18] = assay: as above
Protocol: as §1

A498 [19] = assay: as above
Protocol: as §1

TK-10 [20] = assay: as above
Protocol: as §1

SN12C [21] = assay: as above
Protocol: as §1

769-P [22] = assay: as above
Protocol: as §1

ACHN [23] = assay: as above
Protocol: as §1

UO-31 [24] = assay: as above
Protocol: as §1

Structure (SMILES)	GI50 of drug (CAKI-1 [1])	GI50 of drug (786-O [2])	GI50 of drug (A498 [3])	GI50 of drug (TK-10 [4])	GI50 of drug (SN12C [5])	GI50 of drug (769-P [6])	GI50 of drug (ACHN [7])	GI50 of drug (UO-31 [8])	AUC of dose-response viability curve (CAKI-1 [9])	AUC of dose-response viability curve (786-O [10])	AUC of dose-response viability curve (A498 [11])	AUC of dose-response viability curve (TK-10 [12])	AUC of dose-response viability curve (SN12C [13])	AUC of dose-response viability curve (769-P [14])	AUC of dose-response viability curve (ACHN [15])	AUC of dose-response viability curve (UO-31 [16])	minimum viability across doses (CAKI-1 [17])	minimum viability across doses (786-O [18])	minimum viability across doses (A498 [19])	minimum viability across doses (TK-10 [20])	minimum viability across doses (SN12C [21])	minimum viability across doses (769-P [22])	minimum viability across doses (ACHN [23])	minimum viability across doses (UO-31 [24])
CN(C)CC[C@H](CSc1ccccc1)Nc1ccc(S(=O)(=O)NC(=O)c2ccc(N3CCN(Cc4ccccc4-c4ccc(Cl)cc4)CC3)cc2)cc1[N+](=O)[O-] [ABT-737] + Cc1nc(Nc2ncc(C(=O)Nc3c(C)cccc3Cl)s2)cc(N2CCN(CCO)CC2)n1 [dasatinib]	> 10000 nM	469 nM	5.92 µM	3300 nM	> 10000 nM	2140 nM	2560 nM	3.31 µM	2.41	1.74	3.1	2.24	2.58	2.31	1.9	3.71	0.65	0.00111	0.171	0.144	0.515	0.0505	0.23	0.00776
CCN1CCN(Cc2ccc(-c3cc4c(N[C@H](C)c5ccccc5)ncnc4[nH]3)cc2)CC1 [AEE788 (NVP-AEE788)] + Cc1nc(Nc2ncc(C(=O)Nc3c(C)cccc3Cl)s2)cc(N2CCN(CCO)CC2)n1 [dasatinib]	1770 nM	4450 nM	5.83 µM	305 nM	2100 nM	298 nM	13.7 nM	1.79 µM	2	2.38	2.9	1.92	2.16	1.81	1.19	2.92	0.0223	0.0446	0.258	0.0139	0.218	0.0653	0.0466	0.00751
N#C/C(=C\c1ccc(O)c(O)c1)C(=O)NCc1ccccc1 [AG-490] + Cc1nc(Nc2ncc(C(=O)Nc3c(C)cccc3Cl)s2)cc(N2CCN(CCO)CC2)n1 [dasatinib]	> 10000 nM	2470 nM	> 10 µM	> 10000 nM	> 10000 nM	8560 nM	2330 nM	> 10 µM	2.43	2.36	3.3	2.62	2.49	2.42	1.98	3.44	0.667	0.355	0.887	0.544	0.681	0.488	0.179	0.8
CC(C)(C)c1cc(C=C(C#N)C#N)cc(Br)c1O [AG-1024] + Cc1nc(Nc2ncc(C(=O)Nc3c(C)cccc3Cl)s2)cc(N2CCN(CCO)CC2)n1 [dasatinib]	> 10000 nM	> 10000 nM	> 10 µM	> 10000 nM	> 10000 nM	> 10000 nM	> 10000 nM	> 10 µM	2.24	2.42	3.66	2.59	2.55	2.38	2.02	4.02	0.57	0.601	0.971	0.698	0.687	0.586	0.515	1.06
COc1cc2ncnc(Nc3cccc(Cl)c3)c2cc1OC [AG-1478 (Tyrphostin AG-1478)] + Cc1nc(Nc2ncc(C(=O)Nc3c(C)cccc3Cl)s2)cc(N2CCN(CCO)CC2)n1 [dasatinib]	7730 nM	37 nM	> 10 µM	726 nM	> 10000 nM	107 nM	20.9 nM	> 10 µM	2.2	1.84	3.95	1.93	2.37	1.67	1.39	3.65	0.451	0.284	0.961	0.363	0.646	0.3	0.236	0.586
COc1ccc2c(Oc3ccc(NC(=O)c4c(C)n(CC(C)(C)O)n(-c5ccccc5)c4=O)nc3)ccnc2c1 [AMG458] + Cc1nc(Nc2ncc(C(=O)Nc3c(C)cccc3Cl)s2)cc(N2CCN(CCO)CC2)n1 [dasatinib]	893 nM	4000 nM	> 10 µM	5300 nM	1730 nM	3380 nM	1000 nM	4.3 µM	1.92	2.08	3.38	2.39	2.06	2.27	1.89	3.35	0.085	0.195	0.771	0.392	0.396	0.421	0.152	0.0124
Cc1csc(-c2nnc(Nc3ccc(Oc4ncccc4-c4ccnc(N)n4)cc3)c3ccccc23)c1 [AMG 900] + Cc1nc(Nc2ncc(C(=O)Nc3c(C)cccc3Cl)s2)cc(N2CCN(CCO)CC2)n1 [dasatinib]	15.4 nM	7.2 nM	> 10 µM	6460 nM	383 nM	36.1 nM	8.54 nM	> 10 µM	1.32	0.863	3.08	2.2	1.93	1.44	1.25	4.1	0.286	0.117	0.562	0.459	0.319	0.211	0.186	0.604
COc1ccc2c(OCc3nnc4ccc(-c5ccccc5)nn34)ccnc2c1 [AMG-208] + Cc1nc(Nc2ncc(C(=O)Nc3c(C)cccc3Cl)s2)cc(N2CCN(CCO)CC2)n1 [dasatinib]	> 10000 nM	> 10000 nM	> 10 µM	> 10000 nM	> 10000 nM	> 10000 nM	> 10000 nM	> 10 µM	2.24	2.6	3.32	2.54	2.52	2.4	2.07	3.91	0.613	0.68	0.805	0.642	0.688	0.634	0.544	0.987
O=C1NC(=O)[C@@H](c2cn3c4c(cccc24)CCC3)[C@@H]1c1c[nH]c2ccccc12 [ARQ 197 (Tivantinib)] + Cc1nc(Nc2ncc(C(=O)Nc3c(C)cccc3Cl)s2)cc(N2CCN(CCO)CC2)n1 [dasatinib]	178 nM	191 nM	0.975 µM	1460 nM	1870 nM	509 nM	367 nM	1.98 µM	1.56	1.42	2.42	2.11	2.01	1.87	1.73	2.97	0.0929	0.00404	0.133	0.298	0.181	0.0843	0.147	0.03
C=CC(=O)Nc1ccc2ncnc(Nc3ccc(OCc4cccc(F)c4)c(Cl)c3)c2c1.Cc1ccc(S(=O)(=O)O)cc1 [AST-1306] + Cc1nc(Nc2ncc(C(=O)Nc3c(C)cccc3Cl)s2)cc(N2CCN(CCO)CC2)n1 [dasatinib]	1680 nM	1110 nM	9.99 µM	406 nM	5350 nM	321 nM	84.7 nM	3.17 µM	2.04	1.99	3.44	2.01	2.22	1.82	1.62	3.51	0.00665	0.0714	0.495	0.0976	0.0534	0.0288	0.138	0.06
Cc1cc2c(C(C)C)c(O)c(O)c(C=O)c2c(O)c1-c1c(C)cc2c(C(C)C)c(O)c(O)c(C=O)c2c1O [AT101] + Cc1nc(Nc2ncc(C(=O)Nc3c(C)cccc3Cl)s2)cc(N2CCN(CCO)CC2)n1 [dasatinib]	3350 nM	> 10000 nM	> 10 µM	> 10000 nM	> 10000 nM	> 10000 nM	1850 nM	> 10 µM	2.15	2.18	3.27	2.33	2.62	2.6	1.84	3.9	0.106	0.265	0.835	0.517	0.667	0.636	0.133	0.947
O=C(NC1CCNCC1)c1n[nH]cc1NC(=O)c1c(Cl)cccc1Cl [AT7519] + Cc1nc(Nc2ncc(C(=O)Nc3c(C)cccc3Cl)s2)cc(N2CCN(CCO)CC2)n1 [dasatinib]	347 nM	218 nM	0.337 µM	610 nM	435 nM	1130 nM	271 nM	0.864 µM	1.64	1.52	2.2	2.09	1.59	2.02	1.44	2.79	0.0385	0.00538	0.00778	0.179	0.00559	0.0219	0.00318	0.00867
Clc1ccc(C2(c3ccc(-c4cn[nH]c4)cc3)CCNCC2)cc1 [AT7867] + Cc1nc(Nc2ncc(C(=O)Nc3c(C)cccc3Cl)s2)cc(N2CCN(CCO)CC2)n1 [dasatinib]	762 nM	577 nM	8.31 µM	1970 nM	3460 nM	1690 nM	530 nM	0.348 µM	1.96	1.85	3.22	2.49	2.43	2.16	1.69	2.34	0.094	0.00775	0.135	0.0469	0.192	0.124	0.0726	0.00689
O=C(Nc1c[nH]nc1-c1nc2cc(CN3CCOCC3)ccc2[nH]1)NC1CC1 [AT9283] + Cc1nc(Nc2ncc(C(=O)Nc3c(C)cccc3Cl)s2)cc(N2CCN(CCO)CC2)n1 [dasatinib]	134 nM	48.7 nM	0.633 µM	253 nM	672 nM	128 nM	48.8 nM	0.306 µM	1.67	1.19	2.4	1.83	1.75	1.46	1.18	1.87	0.0645	0.00871	0.0108	0.0526	0.00616	0.0379	0.0114	0.0134
